From patent EP0333517A2, “Method and agent for inhibiting the binding of human polymorphonuclear leukocytes to endothelium and compositions therefor” (THE ROCKEFELLER UNIVERSITY, priority 1988, dated 1989) come the findings set out here.

In assay [1] the test system is binding of PMN to endothelial cells. Nature of the assay: Binding of phorbol dibutyrate-stimulated PMN to endothelial cells (binding assessed by microscopy). The format is cell-based. The conditions noted are these: indicated doses (Figures 3 and 4, not given); human umbilical cord endothelial cells; 37°C for 15 min. How it is done: This example illustrates that the method of the invention can be used to inhibit the binding of stimulated PMN to human endothelial cells.
The experiments are conducted as follows. Purified human PMN were stimulated for 15 min. with 300 ng/ml of phorbol dibutyrate. This stimulation is necessary to enable PMN to bind, and mimics the stimulation of PMN at sites of inflammation. Endothelial cells were isolated from human umbilical cords by standard methods [Pawlowski et al., Proc. Natl. Aca. Sci., 82, 8202 (1985)] and were cultivated on fibronectin-coated tissue culture surfaces to confluence. […] PMN were washed and combined with the indicated doses of Arg-Leu-Leu-Pro-Gly-Gly-Leu-Gln-Gln-Gly-Arg-Gly- Asp-Ala-Val-Gly-Pro-Glu-Arg-Gly-Cys (Pep63) in Figure 3, or with the indicated doses of Gly-Gln-Gln-His-His-Leu-Gly-Gly-Ala-Lys-Gln-Ala-Gly-Asp-Val (G15) in Figure 4. The cells were then added to the endothelium and incubated at 37°C for 15 min. Unattached PMN were then washed away and the binding was assessed by microscopy.

Assay [2] deals with binding of PMN to fibrinogen. Nature of the assay: Binding of phorbol dibutyrate-stimulated PMN to fibrinogen-coated surfaces (adherent cells counted by phase contrast microscopy). In kind it is cell-based, human. The note with it: 2 mg/ml of synthetic peptide; PMN stimulated with 300 ng/ml phorbol dibutyrate; 20 min at 0°C then 30 min at 37°C; Figure 1. As to the method:
This example illustrates that the method of the invention can be used to inhibit binding of stimulated PMN to fibrinogen-coated surfaces. Figure 1 illustrates the level of inhibition of binding by incubation with monoclonal antibodies against CD11b/CD18 and with the peptide L10, and Figure 2 illustrates the dose dependence of this inhibition.
Details of the experiments are as follows. Purified human PMN were stimulated for 15 min. with 300 ng/ml of phorbol dibutyrate. This stimulation is necessary to enable PMN to bind, and mimics the stimulation of PMN at sites of inflammation. Culture wells were coated with fibrinogen or human serum albumin by incubating 1 mg/ml of these proteins with the culture surfaces for 1 hr. at 20°C. The PMN were then washed and added to culture wells coated with fibrinogen in the presence of 10µg/ml of various monoclonal antibodies or 2 mg/ml of synthetic peptides. PMN were allowed to settle onto the surface for 20 min. at 0°C, then were warmed to 37°C for 30 min. The surfaces were then washed and the number of cells adherent were counted by phase contrast microscopy.

SMILES strings stand for the structures. Residues, ends and D or L forms follow the SMILES beside them.

With `CC(C)C[C@H](NC(=O)[C@H](Cc1c[nH]cn1)NC(=O)[C@H](Cc1c[nH]cn1)NC(=O)[C@H](CCC(N)=O)NC(=O)[C@H](CCC(N)=O)NC(=O)CN)C(=O)NCC(=O)NCC(=O)N[C@@H](C)C(=O)N[C@@H](CCCCN)C(=O)N[C@@H](CCC(N)=O)C(=O)N[C@@H](C)C(=O)NCC(=O)N[C@@H](CC(=O)O)C(=O)N[C@H](C(=O)O)C(C)C` [G15, Gly-Gln-Gln-His-His-Leu-Gly-Gly-Ala-Lys-Gln-Ala-Gly-Asp-Val] (H-GQQHHLGGAKQAGDV-OH), the “inhibition of the binding of PMN to endothelial cells” value in assay [1] is “dose dependence of inhibition”. In the case of `CC(C)C[C@H](N)C(=O)NCC(=O)NCC(=O)N[C@@H](C)C(=O)N[C@@H](CCCCN)C(=O)N[C@@H](CCC(N)=O)C(=O)N[C@@H](C)C(=O)NCC(=O)N[C@@H](CC(=O)O)C(=O)N[C@H](C(=O)O)C(C)C` [L10, Leu-Gly-Gly-Ala-Lys-Gln-Ala-Gly-Asp-Val] (H-LGGAKQAGDV-OH), the “binding of PMN to fibrinogen” value in assay [2] was “strongly inhibits binding”. As for `CC(C)C[C@H](NC(=O)CNC(=O)CNC(=O)[C@@H]1CCCN1C(=O)[C@H](CC(C)C)NC(=O)[C@H](CC(C)C)NC(=O)[C@@H](N)CCCNC(=N)N)C(=O)N[C@@H](CCC(N)=O)C(=O)N[C@@H](CCC(N)=O)C(=O)NCC(=O)N[C@@H](CCCNC(=N)N)C(=O)NCC(=O)N[C@@H](CC(=O)O)C(=O)N[C@@H](C)C(=O)N[C@H](C(=O)NCC(=O)N1CCC[C@H]1C(=O)N[C@@H](CCC(=O)O)C(=O)N[C@@H](CCCNC(=N)N)C(=O)NCC(=O)N[C@@H](CS)C(=O)O)C(C)C` [Pep63] (H-RLLPGGLQQGRGDAVGPERGC-OH), the “inhibition of the binding of PMN to endothelial cells” value in assay [1] is reported as “dose dependence of inhibition”.
